The results in this text go back to patent US20080146617A1, “Methods of treating inflammatory diseases” (Roche Palo Alto LLC, priority 2006, published 2008).

Where two headings read alike, the source gives them in different places. Some results are limits rather than exact numbers.

Broadly, the inhibition is the change of the read-out against control, counted positive when it falls. For orientation: % Inhibition means how much of the control response was suppressed. A high value points to a response far below the control.

The target of one test is T1, RPS6KA3 (Homo sapiens, UniProt P51812).
T1 construct: purchased Ambit Biosciences
Briefly: KinomeScan kinase profiling. Format: binding.

Test [1] concerns IL-8 production in neutrophils. Briefly: Neutrophil assay: IL-8 production after stimulation by inflammatory agents. The conditions noted are these: human neutrophils stimulated by inflammatory agents, FIG. 2. The test is classed as cell-based. An excerpt: (§1) Selective CK1δ, CK1ε or CK1δ-CK1ε inhibitors can be tested for their antiinflammatory effects using a variety of in vitro and in vivo tests that are well known in the art. One such in vitro test involves the application of the inhibitor to human neutrophils to observe whether the induction of inflammatory cytokines, such as IL-8, by tumor necrosis factor (TNF) or lipopolysaccharide (LPS) can be reduced. This test is further described in Example 2. An example of an in vivo test, as described in Example 3, is the air pouch model of inflammatory synovitis in mice in which the inhibitors are tested for their blockade of neutrophil influx as well as of inflammatory cytokine accumulation.
The Histopaque 1077 and 1119 gradient density centrifugation method (Sigma-Aldrich) was used to isolate granulocytes from human blood. The granulocytes were recovered from the 1077/1119 interphase, washed twice with PBS. The red blood cells were lysed with PureGene red cell lysis buffer (Gentra Biosystems). The cells were washed again and resuspended in growth media (RPMI, 10% FBS, β-mercaptoethanol, Pen/Strep/glutamine and sodium pyruvate) at a density of 1 to 5 million per ml. […] The supernatant was analyzed for cytokine production (Luminex human 22-plex assay) and the cells were lysed for RNA production and analysis.

The target in the next test is T2, CSNK1E (Homo sapiens, UniProt P49674).
T2 construct: purchased Ambit Biosciences (San Diego, Calif.)
Description: KinomeScan kinase profiling. The test is classed as binding.

A further test concerns the target T3, PKAC-alpha (Homo sapiens, UniProt P17612).
T3 construct: purchased Ambit Biosciences (San Diego, Calif.)
Briefly: KinomeScan kinase profiling. The test is classed as binding.

A further test addresses T4, AURKA (Homo sapiens, UniProt O14965).
T4 construct: purchased Ambit Biosciences (San Diego, Calif.)
Description: KinomeScan kinase profiling. The test is classed as binding.

The target of the next test is T5, LCK (Homo sapiens, UniProt P06239).
T5 construct: purchased Ambit Biosciences (San Diego, Calif.)
Briefly: KinomeScan kinase profiling. Format: binding.

Another test has as its target T6, EPHA2 (Homo sapiens, UniProt P29317).
T6 construct: purchased Ambit Biosciences (San Diego, Calif.)
Description: KinomeScan kinase profiling. The test is classed as binding.

A further test deals with T7, PTK6 (Homo sapiens, UniProt Q13882).
T7 construct: purchased Ambit Biosciences
Description: KinomeScan kinase profiling. Format: binding.

For a further test, the system named is inflammatory synovitis. Briefly: Air pouch synovitis model. To be noted: 1 μg LPS, FIG. 3. The test is classed as in vivo, Balbc/J mice.
Description: as §1
Adult Balbc/J mice were purchased from Charles River Labs and housed and utilized according IACUC protocols and standards. The airpouch was inflated on the dorsal surface of each mouse with 3 ml of air, after light anesthesia with CO2/O2 mix. Three days later each pouch was re-inflated with 3 mls of air. After an additional three days, the pouches were injected with vehicle or compound (normally in 0.1% DMSO in PBS) in 1 ml per pouch. After 20 to 30 minutes, each pouch received 1 μg of LPS or control (PBS). The animals were euthanized four to six hours later. The pouches were flushed with 2 ml of PBS, the cells were then collected, counted and normalized for volume recovered. The fluid recovered was analyzed for cytokine production (Luminex Mouse 21-plex assay). The cells were lysed for RNA or protein analysis.

The target in another test is T8, BRAF (Homo sapiens, UniProt P15056).
T8 construct: purchased Ambit Biosciences (San Diego, Calif.)
Description: KinomeScan kinase profiling. Format: binding.

The target of a further test is T9, BRAF(V600E) (Homo sapiens, UniProt P15056, V600E).
T9 construct: purchased Ambit Biosciences (San Diego, Calif.)
Briefly: KinomeScan kinase profiling. Format: binding.

T2 sequence (P49674 whole entry): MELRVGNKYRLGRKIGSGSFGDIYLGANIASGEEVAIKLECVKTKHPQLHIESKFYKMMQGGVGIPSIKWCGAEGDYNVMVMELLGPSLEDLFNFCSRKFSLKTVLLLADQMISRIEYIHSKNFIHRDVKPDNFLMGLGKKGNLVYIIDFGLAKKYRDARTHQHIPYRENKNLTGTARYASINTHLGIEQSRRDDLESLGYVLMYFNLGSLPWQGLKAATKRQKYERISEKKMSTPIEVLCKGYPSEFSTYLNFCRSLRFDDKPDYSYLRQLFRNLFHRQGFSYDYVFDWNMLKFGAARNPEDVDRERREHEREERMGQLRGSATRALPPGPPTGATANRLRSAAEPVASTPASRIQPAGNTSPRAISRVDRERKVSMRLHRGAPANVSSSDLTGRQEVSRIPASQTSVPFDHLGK
T7 sequence (Q13882 whole entry): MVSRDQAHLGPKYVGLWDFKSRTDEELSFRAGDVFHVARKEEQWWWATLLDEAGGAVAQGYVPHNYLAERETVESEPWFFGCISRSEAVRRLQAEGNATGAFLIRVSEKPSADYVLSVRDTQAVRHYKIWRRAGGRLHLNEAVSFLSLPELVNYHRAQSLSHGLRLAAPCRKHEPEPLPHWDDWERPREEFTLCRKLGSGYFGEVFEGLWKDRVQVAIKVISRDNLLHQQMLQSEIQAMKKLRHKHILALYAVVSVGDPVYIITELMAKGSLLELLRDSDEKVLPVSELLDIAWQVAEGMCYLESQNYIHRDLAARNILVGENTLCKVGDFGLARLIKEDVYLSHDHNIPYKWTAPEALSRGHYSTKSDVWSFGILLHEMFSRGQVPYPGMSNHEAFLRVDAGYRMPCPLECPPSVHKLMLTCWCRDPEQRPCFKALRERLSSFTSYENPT
T1 sequence (P51812 whole entry): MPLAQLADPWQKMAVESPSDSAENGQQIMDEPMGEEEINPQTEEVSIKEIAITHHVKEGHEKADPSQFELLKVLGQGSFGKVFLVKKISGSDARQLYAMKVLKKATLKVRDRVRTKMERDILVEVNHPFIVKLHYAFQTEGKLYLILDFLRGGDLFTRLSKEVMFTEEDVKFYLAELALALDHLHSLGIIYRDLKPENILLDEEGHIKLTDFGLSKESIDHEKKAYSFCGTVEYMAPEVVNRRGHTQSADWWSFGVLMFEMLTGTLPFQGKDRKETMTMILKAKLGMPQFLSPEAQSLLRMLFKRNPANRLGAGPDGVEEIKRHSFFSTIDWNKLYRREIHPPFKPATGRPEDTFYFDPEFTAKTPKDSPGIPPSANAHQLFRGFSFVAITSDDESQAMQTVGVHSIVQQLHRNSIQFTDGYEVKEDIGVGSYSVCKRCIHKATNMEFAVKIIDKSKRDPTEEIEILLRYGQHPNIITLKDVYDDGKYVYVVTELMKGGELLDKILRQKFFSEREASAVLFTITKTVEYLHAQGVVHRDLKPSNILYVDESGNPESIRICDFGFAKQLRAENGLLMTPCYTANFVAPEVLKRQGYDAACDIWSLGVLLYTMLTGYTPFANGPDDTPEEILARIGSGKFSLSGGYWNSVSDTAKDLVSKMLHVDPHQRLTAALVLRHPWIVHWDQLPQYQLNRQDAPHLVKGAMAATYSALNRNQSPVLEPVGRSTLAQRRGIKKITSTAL
T6 sequence (P29317 24-976): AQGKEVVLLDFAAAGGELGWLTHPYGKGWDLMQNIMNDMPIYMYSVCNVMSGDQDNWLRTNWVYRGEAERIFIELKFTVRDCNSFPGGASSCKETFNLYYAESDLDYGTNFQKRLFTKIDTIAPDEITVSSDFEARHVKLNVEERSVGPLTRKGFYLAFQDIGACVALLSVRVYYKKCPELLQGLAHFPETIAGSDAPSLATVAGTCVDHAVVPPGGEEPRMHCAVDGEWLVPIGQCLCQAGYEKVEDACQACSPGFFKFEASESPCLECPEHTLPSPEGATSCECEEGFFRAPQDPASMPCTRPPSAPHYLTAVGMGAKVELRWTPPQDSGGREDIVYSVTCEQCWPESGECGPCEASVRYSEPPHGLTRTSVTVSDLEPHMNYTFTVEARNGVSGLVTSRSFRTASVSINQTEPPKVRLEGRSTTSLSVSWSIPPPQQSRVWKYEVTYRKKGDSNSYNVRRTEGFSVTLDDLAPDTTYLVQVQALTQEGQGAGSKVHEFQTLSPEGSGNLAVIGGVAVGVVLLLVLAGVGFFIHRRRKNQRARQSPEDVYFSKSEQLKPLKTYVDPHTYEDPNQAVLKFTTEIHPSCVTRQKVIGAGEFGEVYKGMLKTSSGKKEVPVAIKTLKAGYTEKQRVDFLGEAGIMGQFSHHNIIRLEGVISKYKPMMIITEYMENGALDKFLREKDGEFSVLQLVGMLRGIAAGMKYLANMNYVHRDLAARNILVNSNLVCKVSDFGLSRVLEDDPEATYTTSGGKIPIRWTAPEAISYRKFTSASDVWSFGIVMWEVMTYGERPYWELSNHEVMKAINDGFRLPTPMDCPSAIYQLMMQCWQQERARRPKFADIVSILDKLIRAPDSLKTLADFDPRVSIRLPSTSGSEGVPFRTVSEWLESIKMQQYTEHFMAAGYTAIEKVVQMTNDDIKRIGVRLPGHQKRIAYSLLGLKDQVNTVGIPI
T4 sequence (O14965 whole entry): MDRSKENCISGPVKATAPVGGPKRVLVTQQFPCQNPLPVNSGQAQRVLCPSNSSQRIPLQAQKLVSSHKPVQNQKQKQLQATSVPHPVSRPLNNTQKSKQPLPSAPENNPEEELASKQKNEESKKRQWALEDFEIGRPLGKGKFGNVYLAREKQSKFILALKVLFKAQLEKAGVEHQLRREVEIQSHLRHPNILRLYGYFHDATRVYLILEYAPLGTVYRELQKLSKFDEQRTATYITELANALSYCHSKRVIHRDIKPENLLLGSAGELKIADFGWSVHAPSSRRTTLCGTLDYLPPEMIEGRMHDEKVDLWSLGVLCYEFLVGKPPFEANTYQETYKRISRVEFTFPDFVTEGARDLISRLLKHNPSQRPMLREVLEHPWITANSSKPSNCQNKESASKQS
T5 sequence (P06239 whole entry): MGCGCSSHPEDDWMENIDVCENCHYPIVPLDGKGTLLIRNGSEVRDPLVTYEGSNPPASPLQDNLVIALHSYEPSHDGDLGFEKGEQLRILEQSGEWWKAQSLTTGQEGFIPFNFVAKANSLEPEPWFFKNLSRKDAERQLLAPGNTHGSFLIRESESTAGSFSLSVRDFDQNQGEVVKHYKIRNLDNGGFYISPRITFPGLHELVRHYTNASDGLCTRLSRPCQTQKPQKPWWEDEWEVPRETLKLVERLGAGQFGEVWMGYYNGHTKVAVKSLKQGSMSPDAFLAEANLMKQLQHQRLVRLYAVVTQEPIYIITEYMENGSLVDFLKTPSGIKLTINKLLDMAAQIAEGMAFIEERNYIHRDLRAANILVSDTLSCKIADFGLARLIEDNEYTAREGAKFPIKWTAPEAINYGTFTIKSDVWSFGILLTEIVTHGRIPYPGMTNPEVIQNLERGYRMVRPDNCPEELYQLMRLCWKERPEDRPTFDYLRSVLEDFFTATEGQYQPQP
T8 sequence (P15056 whole entry): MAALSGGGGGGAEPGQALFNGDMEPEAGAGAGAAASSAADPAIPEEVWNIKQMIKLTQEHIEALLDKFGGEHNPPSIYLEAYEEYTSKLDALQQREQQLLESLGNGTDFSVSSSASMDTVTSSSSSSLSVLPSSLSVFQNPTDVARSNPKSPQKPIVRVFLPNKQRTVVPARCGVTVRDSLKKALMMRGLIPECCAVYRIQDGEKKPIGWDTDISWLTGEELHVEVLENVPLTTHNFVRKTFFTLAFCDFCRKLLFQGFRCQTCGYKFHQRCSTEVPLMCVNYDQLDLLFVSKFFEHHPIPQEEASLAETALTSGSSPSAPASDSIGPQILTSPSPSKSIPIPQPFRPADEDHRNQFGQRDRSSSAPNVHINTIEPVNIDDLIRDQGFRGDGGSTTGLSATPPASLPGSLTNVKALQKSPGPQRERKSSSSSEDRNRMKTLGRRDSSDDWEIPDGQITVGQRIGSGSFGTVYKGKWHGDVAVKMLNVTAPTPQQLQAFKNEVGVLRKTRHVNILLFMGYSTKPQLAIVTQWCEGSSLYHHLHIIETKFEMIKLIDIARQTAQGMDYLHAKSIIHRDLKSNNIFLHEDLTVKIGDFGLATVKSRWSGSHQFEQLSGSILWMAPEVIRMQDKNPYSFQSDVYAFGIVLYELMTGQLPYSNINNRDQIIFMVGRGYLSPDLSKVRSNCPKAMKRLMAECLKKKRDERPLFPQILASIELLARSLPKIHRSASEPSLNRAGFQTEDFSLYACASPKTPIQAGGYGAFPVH
T9 sequence (P15056 whole entry V600E): as the sequence (P15056 whole entry) above, with V600E counted along it

In the case of `NC(=O)c1ccc(-c2nc(-c3ccc4c(c3)OCO4)c(-c3ccccn3)[nH]2)cc1` [SB431542, 4-(4-benzo-[1,3]dioxol-5-yl-5-pyridin-2-yl-1H-imidazol-2-yl)benzamide], the inhibition at 10 µM is < 50% against RPS6KA3; 100% on CSNK1E (10 μM, CSNK1E (CK1ε isoform), read-out: % Inhibition); < 50% against PKAC-alpha; < 50% against AURKA; < 50% against LCK; < 50% on EPHA2. In addition, on PTK6, the inhibition at 10 µM is < 50%. Moreover, the “inhibition of IL-8 production in neutrophils” value in test [1] was “dose-dependent inhibition”. Moreover, the “% Inhibition” value on CSNK1E (10 μM, CSNK1E (CK1ε isoform)) turned out to be 100%. The “production of IL-6” value in the test on inflammatory synovitis (mouse air pouch fluid) is given as “inhibited”. In addition, the “production of MCP1” value with inflammatory synovitis (mouse air pouch fluid) is “inhibited”. The neutrophil influx result with inflammatory synovitis (mouse air pouch, compound injected into pouch) is “inhibited”.
Regarding `NC(=O)c1ccc(-c2nc(-c3ccc4c(c3)OCCO4)c(-c3ccccn3)[nH]2)cc1` [D4476, 4-[4-(2,3-Dihydro-benzo[1,4]dioxin-6-yl)-5-pyridin-2-yl-1H-imidazol-2-yl]benzamide], the inhibition at 10 µM is < 50% against BRAF; < 50% at RPS6KA3; 100% on CSNK1E; < 50% on PKAC-alpha; < 50% against AURKA; < 50% on LCK. Also, the inhibition at 10 µM at EPHA2, against BRAF(V600E) and at PTK6 was < 50% each time. Moreover, at CSNK1E (10 μM, CSNK1E (CK1ε isoform)), the “% Inhibition” value turned out to be 100%.
